The results in this text go back to ChEMBL document CHEMBL1123899, “Nucleic acid related compounds. 51. Synthesis and biological properties of sugar-modified analogues of the nucleoside antibiotics tubercidin, toyocamycin, sangivamycin, and formycin” (1987).

This assay relates to Vaccinia virus. Nature of the assay: Minimum inhibitory concentration required to reduce vaccinia virus(VV) induced cytopathogenicity by 50%. Conditions: Orthopoxvirus vaccinia. It counts as functional.

≈ marks a conversion by molar mass, not a printed value.

`Nc1ncnc2c1ccn2[C@@H]1O[C@H](CO)[C@H](O)[C@H]1O` came in with an MIC50 of 0.03 µg/mL (≈ 0.113 µM).
Next, `Nc1ncnc2c1ccn2[C@@H]1O[C@H](CO)[C@@H](O)[C@H]1O` [TUBERCIDIN]: 0.007 µg/mL (≈ 0.0263 µM); `NC(=O)c1cn([C@@H]2O[C@H](CO)[C@@H](O)[C@H]2O)c2ncnc(N)c12` [SANGIVAMYCIN]: 0.02 µg/mL (≈ 0.0647 µM).
The value for `N#Cc1cn([C@@H]2O[C@H](CO)[C@@H](O)[C@H]2O)c2ncnc(N)c12` [TOYOCAMYCIN] was > 0.04 µg/mL; that for `NC(=O)c1cn([C@H]2C[C@H](O)[C@@H](CO)O2)c2ncnc(N)c12` was 0.4 µg/mL (≈ 1.36 µM).
The value for `NC(=O)c1cn([C@@H]2O[C@H](CO)[C@@H](O)[C@@H]2O)c2ncnc(N)c12` was 0.2 µg/mL (≈ 0.647 µM); that for `N#Cc1cn(C2OC(CO)CC2O)c2ncnc(N)c12` (configuration not stated) was 0.1 µg/mL (≈ 0.363 µM).
As to `N#Cc1cn([C@H]2C[C@H](O)[C@@H](CO)O2)c2ncnc(N)c12`, the MIC50 was 0.1 µg/mL (≈ 0.363 µM).
Next, `Nc1ncnc2c(C3OC(CO)CC3O)n[nH]c12` (configuration not stated): > 400 µg/mL.
`N#Cc1cn([C@@H]2O[C@H](CO)[C@@H](O)[C@@H]2O)c2ncnc(N)c12` returned an MIC50 of 1 µg/mL (≈ 3.43 µM).
Next, `Nc1ncnc2c([C@H]3C[C@H](O)[C@@H](CO)O3)n[nH]c12`: > 400 µg/mL; `Nc1ncnc2c1ccn2[C@@H]1O[C@H](CO)[C@@H](O)[C@@H]1O`: 40 µg/mL (≈ 150 µM).
Next, `NC(=O)c1ncn([C@@H]2O[C@H](CO)[C@@H](O)[C@H]2O)n1` [RIBAVIRIN]: 20 µg/mL (≈ 81.9 µM); `Nc1ncnc2c1ccn2[C@H]1C[C@H](O)[C@@H](CO)O1` [2'-Deoxytubercidin]: 10 µg/mL (≈ 40 µM); `Nc1ncnc2c1ccn2C1OC(CO)CC1O` (configuration not stated): 1.5 µg/mL (≈ 5.99 µM).
The value for `NC(=O)c1cn(C2OC(CO)CC2O)c2ncnc(N)c12` (configuration not stated) was 2 µg/mL (≈ 6.82 µM); that for `Nc1ncnc2c([C@@H]3O[C@H](CO)[C@@H](O)[C@H]3O)[nH]nc12` [FORMYCIN] was 7 µg/mL (≈ 26.2 µM).
